Measured values as given in patent US10065990B2, “Cyclic peptide compound, and preparation method, pharmaceutical composition and use thereof” (HANGZHOU GUANYU BIO-MEDICAL CO., LTD, priority 2013, dated 2018).
Like-named read-outs stand apart in the source and are kept apart here.

Key:
HDAC1 = HDAC1 (Homo sapiens, UniProt Q13547); assay: HDAC biochemical activity measurement (fluorescent substrate deacetylation);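 also: fluorogenic acetyl-lysine substrate (20 µM) deacetylated by HDAC1, then developer releases fluorophore read at 360 nm excitation and 460 nm emission, inhibitor incubated 30 min at 37 °C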
Sequence of HDAC1 (Q13547 whole entry, species assumed): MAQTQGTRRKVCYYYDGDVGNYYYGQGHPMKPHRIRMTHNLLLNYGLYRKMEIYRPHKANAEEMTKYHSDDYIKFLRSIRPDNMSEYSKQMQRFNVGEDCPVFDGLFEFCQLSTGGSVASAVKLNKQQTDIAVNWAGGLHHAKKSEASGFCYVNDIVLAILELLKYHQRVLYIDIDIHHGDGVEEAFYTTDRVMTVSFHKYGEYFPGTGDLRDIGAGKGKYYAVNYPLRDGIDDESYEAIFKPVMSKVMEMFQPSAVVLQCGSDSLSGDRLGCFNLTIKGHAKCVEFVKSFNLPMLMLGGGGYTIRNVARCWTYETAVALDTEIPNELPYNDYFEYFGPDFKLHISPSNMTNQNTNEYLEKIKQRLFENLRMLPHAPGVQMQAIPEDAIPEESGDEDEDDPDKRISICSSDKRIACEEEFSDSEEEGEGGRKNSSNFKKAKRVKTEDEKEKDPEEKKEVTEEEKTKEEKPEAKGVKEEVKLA

HDAC2 = HDAC2 (Homo sapiens, UniProt Q92769); assay: as above; conditions: 37° C. 30 minutes;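 also: HDAC2 enzyme with an acetyl-lysine fluorescent substrate, then developer added, fluorescence read at excitation 360 nm and emission 460 nm, inhibition measured across several compound concentrations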
Sequence of HDAC2 (Q92769 whole entry, species assumed): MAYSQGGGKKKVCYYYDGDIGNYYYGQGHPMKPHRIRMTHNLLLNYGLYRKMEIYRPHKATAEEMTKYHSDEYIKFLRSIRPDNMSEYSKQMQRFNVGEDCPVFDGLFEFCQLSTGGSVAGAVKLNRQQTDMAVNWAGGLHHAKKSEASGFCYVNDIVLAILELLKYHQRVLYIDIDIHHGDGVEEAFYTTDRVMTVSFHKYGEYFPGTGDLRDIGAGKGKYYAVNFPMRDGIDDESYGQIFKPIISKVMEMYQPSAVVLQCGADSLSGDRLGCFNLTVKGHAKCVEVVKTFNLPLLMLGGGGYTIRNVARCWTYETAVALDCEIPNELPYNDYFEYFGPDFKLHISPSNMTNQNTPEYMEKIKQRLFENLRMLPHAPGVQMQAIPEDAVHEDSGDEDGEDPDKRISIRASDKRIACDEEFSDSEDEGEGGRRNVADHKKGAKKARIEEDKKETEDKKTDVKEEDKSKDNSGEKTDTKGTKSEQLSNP

HDAC8 = target: T1, HDAC8 (Homo sapiens, UniProt Q9BY41); assay: as above; conditions: 37° C. 30 minutes
T1 sequence (Q9BY41 1-377): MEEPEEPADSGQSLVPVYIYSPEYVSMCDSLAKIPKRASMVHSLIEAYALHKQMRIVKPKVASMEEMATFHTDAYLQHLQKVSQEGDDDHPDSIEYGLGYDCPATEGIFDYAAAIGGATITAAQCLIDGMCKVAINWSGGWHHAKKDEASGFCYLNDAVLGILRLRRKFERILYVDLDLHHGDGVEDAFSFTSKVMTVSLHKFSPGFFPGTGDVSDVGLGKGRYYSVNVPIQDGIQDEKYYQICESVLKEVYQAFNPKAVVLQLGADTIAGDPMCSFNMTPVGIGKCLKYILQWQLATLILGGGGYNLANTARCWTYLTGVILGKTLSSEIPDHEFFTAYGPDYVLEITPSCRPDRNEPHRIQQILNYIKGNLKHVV

HDAC7 = target: T2, HDAC7 (Homo sapiens, UniProt Q8WUI4); assay: as above; conditions: HDAC7; 37° C. 30 minutes;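 also: fluorogenic deacetylation assay using acetyl-lysine substrate at 20 µM, enzyme and compound incubated 30 min at 37 °C, then developer added, fluorescence read at 360/460 nm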
T2 sequence (Q8WUI4 1-952): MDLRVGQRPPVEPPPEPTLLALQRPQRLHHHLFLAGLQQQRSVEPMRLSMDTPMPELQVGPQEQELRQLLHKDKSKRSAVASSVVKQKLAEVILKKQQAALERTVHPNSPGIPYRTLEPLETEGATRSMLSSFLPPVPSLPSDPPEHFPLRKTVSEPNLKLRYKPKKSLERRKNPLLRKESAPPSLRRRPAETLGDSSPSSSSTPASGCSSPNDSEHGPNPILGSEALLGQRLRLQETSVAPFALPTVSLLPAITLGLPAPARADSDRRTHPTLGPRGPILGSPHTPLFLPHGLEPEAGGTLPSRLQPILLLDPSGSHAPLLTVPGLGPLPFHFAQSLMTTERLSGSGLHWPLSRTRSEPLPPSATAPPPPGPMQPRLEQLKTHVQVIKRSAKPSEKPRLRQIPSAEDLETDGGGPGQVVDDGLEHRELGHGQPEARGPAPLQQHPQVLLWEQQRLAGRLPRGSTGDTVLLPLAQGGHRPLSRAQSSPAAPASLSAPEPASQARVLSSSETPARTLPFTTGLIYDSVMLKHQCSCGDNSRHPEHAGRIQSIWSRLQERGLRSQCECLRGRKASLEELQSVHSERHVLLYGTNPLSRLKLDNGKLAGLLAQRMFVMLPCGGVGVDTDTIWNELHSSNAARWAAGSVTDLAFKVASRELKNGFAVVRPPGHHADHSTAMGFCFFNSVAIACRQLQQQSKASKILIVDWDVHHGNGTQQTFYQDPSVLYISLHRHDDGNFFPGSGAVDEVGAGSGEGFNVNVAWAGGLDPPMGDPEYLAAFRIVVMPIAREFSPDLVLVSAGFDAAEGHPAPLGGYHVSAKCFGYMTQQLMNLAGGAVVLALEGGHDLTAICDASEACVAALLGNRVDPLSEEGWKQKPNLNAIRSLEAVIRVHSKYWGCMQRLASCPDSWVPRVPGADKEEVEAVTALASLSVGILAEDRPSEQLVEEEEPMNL

[1] = system: A549 (human lung cancer cells); assay: MTT cancer cell growth inhibition; assay type: cell-based; conditions: Homo sapiens, A549, 72 h, MTT, 72 hours incubation, read-out: GI50 A54
How it was run: (§1)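 Using a 72 h MTT format, triplicate wells of 1500 cells received compound concentrations from 10^−5 to 10^−10 M. Formazan was read at 570 nm after DMSO dissolution, and GI50 was derived from viability.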

[2] = system: H1975 (non-small cell lung adenocarcinoma); assay: MTT cancer cell growth inhibition; assay type: cell-based; conditions: Homo sapiens, NCI-H1975, 72 h, MTT, 72 hours incubation, H1975 cells; read-out: GI50 H1975
How it was run: as §1

[3] = system: KBM5-T315I (human chronic myelogenous leukemia); assay: MTT cancer cell growth inhibition; assay type: cell-based; conditions: Homo sapiens, 72 h, MTT, 72 hours incubation, KBM5-T315I cells; read-out: GI50 KBM5-T315I
How it was run: as §1

[4] = system: MCF-7 (human breast cancer cells); assay: MTT cancer cell growth inhibition; assay type: cell-based; conditions: Homo sapiens, MCF7, 72 h, 72 hours incubation, read-out: GI50 MCF
How it was run: as §1

[5] = system: MOLT-4 (human acute lymphoblastic leukemia cells); assay: MTT cancer cell growth inhibition; assay type: cell-based; conditions: Homo sapiens, MOLT-4, 72 h, MTT, 72 hours incubation, read-out: GI50 Mol
How it was run: as §1

HDAC3 = HDAC3 (Homo sapiens, UniProt O15379); assay: HDAC biochemical activity measurement (fluorescent substrate deacetylation);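 also: fluorogenic acetyl-lysine substrate (20 µM) deacetylated by HDAC3, then developer added for 15 min at room temperature, release of fluorophore read at excitation 360 nm, emission 460 nm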
Sequence of HDAC3 (O15379 whole entry, species assumed): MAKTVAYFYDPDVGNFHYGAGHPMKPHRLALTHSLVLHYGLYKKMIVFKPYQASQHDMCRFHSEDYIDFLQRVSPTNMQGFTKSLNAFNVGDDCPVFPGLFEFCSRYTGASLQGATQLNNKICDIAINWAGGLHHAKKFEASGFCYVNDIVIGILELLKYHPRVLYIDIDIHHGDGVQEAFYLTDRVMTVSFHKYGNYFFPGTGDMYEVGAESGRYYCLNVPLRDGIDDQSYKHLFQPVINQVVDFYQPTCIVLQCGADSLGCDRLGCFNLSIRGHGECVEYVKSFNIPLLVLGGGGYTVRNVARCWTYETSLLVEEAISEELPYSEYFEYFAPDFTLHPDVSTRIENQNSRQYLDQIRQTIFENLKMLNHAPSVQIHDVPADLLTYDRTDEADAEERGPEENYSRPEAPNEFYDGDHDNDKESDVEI
Sequence of HDAC3 (Q9Y618 395-489 partner limits assumed, species assumed): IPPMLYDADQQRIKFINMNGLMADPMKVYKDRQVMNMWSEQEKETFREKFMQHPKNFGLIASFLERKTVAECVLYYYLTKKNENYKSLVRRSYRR

HDAC11 = target: T3, HDAC11 (Homo sapiens, UniProt Q96DB2); assay: as above;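 also: HDAC11 enzyme acting on an acetyl-lysine fluorogenic substrate, then a developer frees the fluorophore, read at excitation 360 nm and emission 460 nm, IC50 over a compound dilution series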
T3 sequence (Q96DB2 1-347): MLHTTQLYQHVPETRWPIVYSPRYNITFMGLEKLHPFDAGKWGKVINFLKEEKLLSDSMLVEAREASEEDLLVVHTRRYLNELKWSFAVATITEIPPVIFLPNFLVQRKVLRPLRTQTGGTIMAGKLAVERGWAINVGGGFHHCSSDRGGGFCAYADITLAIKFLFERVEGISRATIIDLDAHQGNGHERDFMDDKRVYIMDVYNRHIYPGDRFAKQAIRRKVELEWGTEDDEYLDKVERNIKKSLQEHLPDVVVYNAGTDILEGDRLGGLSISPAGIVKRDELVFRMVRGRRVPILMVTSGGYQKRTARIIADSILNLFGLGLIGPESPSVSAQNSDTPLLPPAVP

[6] = HDAC1, 37° C. 30 minutes, read-out: IC50 HDAC1

Row | SMILES | IC50 (HDAC1; [6]) [nM] | IC50 (HDAC2) [nM] | IC50 (HDAC8) [nM] | IC50 HDAC7 (HDAC7) | GI50 ([1]; A549 cells) [nM] | GI50 [2] [nM] | GI50 [3] [nM] | GI50 ([4]; MCF-7 cells) [nM] | GI50 ([5]; MOLT-4 cells) [nM] | IC50 (HDAC3) [nM] | IC50 (HDAC11) [nM] | GI50 [1] [nM] | GI50 [4] [nM] | GI50 [5] [nM] | IC50 (HDAC1; Table 3, column C, read-out: IC50 HDAC1, C (six-membered ring with substituents)) [nM] | IC50 (HDAC3; read-out: IC50 HDAC3, HDAC3, 37° C. 30 minutes) [nM] | IC50 (HDAC11; read-out: IC50 HDAC11, HDAC11, 37° C. 30 minutes) [nM]
1 | C/C=C1\NC(=O)c2ccc(SC)c(n2)CNC(=O)C[C@@H](/C=C/CCSC(=O)CCCCCCC)OC(=O)[C@H](Cc2ccccc2)NC1=O [Compound 191] | 92 | 36 | 18 | no activity | 70 | 32 | 32 | 170 | 50 | 62 | 85 |  |  |  |  |  | 
2 | C/C=C1\NC(=O)c2cc(F)cc(n2)CNC(=O)C[C@@H](/C=C/CCSC(C)=O)OC(=O)[C@H](C(C)C)NC1=O [Compound 94] | 42 | 35 | 28 | no activity |  | 34 | 35 |  |  | 28 | 91 | 40 | 30 | 30 |  |  | 
3 | C/C=C1\NC(=O)c2ccc(F)c(n2)CNC(=O)C[C@@H](/C=C/CCSC(=O)CCCCCCC)OC(=O)[C@H](C)NC1=O [Example 62] | 46 | 27 | 37 | no activity |  | 26 | 64 |  |  | 37 | 79 | 40 | 60 | 30 |  |  | 
4 | C/C=C1\NC(=O)c2nc(ccc2F)CNC(=O)C[C@@H](/C=C/CCSC(=O)CCCCC)OC(=O)[C@H](C(C)C)NC1=O [Compound 36] | 11 | 43 | 35 | no activity |  | 19 | 57 |  |  |  |  | 40 | 50 | 40 | 11 | 37 | 85
5 | C/C=C1\NC(=O)c2ccc(F)c(n2)CNC(=O)C[C@@H](/C=C/CCSC(=O)CCCCCCC)OC(=O)[C@H](Cc2ccccc2)NC1=O [Example 71] | 51 | 29 | 41 | no activity |  | 51 | 28 |  |  | 34 | 96 | 30 | 20 | 20 |  |  | 
